Where a SMILES comes first, the peptide text is derived from it.
What was measured:
[1] = target: T1, Glucagon-like peptide 1 receptor (Homo sapiens, UniProt P43220); experiment: Agonist activity at human GLP-1R expressed in HEK293 cells assessed as stimulation of cAMP accumulation incubated for 20 mins in presence of 0% HSA; assay type: functional, cell-based
[2] = target: T1, Glucagon-like peptide 1 receptor; experiment: Agonist activity at human GLP-1R expressed in HEK293 cells assessed as stimulation of cAMP accumulation incubated for 20 mins in presence of 4.4% HSA; assay type: functional, cell-based
[3] = target: T1, Glucagon-like peptide 1 receptor; experiment: Ratio of EC50 for agonist activity at human GLP-1R expressed in HEK293 cells in presence of 4.4% HSA to EC50 for agonist activity at human GLP-1R expressed in HEK293 cells in presence of 0% HSA; assay type: cell-based

T1 sequence (P43220 whole entry): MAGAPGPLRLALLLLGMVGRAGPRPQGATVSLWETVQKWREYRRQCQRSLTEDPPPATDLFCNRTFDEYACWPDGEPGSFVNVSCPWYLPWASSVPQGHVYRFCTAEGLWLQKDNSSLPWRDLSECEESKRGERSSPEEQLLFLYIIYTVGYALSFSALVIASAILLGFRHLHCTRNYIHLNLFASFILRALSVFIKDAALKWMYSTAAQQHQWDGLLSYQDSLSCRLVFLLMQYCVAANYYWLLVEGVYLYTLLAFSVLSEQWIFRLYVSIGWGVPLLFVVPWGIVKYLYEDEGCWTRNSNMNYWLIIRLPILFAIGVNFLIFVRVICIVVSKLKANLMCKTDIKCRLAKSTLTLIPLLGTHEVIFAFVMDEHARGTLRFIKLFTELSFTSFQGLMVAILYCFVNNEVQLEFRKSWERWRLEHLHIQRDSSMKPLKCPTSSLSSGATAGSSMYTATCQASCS

SMILES	EC50 [1] [nM]	EC50 [2] [nM]	Ratio EC50 [3]
CC[C@H](C)[C@H](NC(=O)[C@H](CC(C)C)NC(=O)[C@H](Cc1c[nH]c2ccccc12)NC(=O)[C@H](CCC(=O)O)NC(=O)[C@@H](NC(=O)[C@H](Cc1ccccc1)NC(=O)[C@@H]1CSC2CC(=O)N(CCC(=O)NC(C(=O)NCCCCCCNC(=O)COCCOCCNC(=O)COCCOCCNC(=O)CCC(NC(=O)CCCCCCCCCCCCCCCCC(=O)O)C(=O)O)CCCCNC(=O)CCN3C(=O)CC(SC[C@H](NC(=O)[C@H](Cc4ccc(O)cc4)NC(=O)[C@H](CCC(=O)O)NC(=O)[C@@H](NC(=O)[C@@H](NC(=O)[C@H](CC(=O)O)NC(=O)[C@H](CC(N)=O)NC(=O)[C@@H](NC(=O)[C@H](Cc4ccc(O)cc4)NC(=O)[C@@H](NC(=O)CNC(=O)[C@H](CCC(=O)O)NC(=O)C(C)(C)NC(=O)[C@@H](N)Cc4c[nH]cn4)[C@@H](C)O)[C@@H](C)O)C(C)C)[C@@H](C)O)C(=O)N[C@@H](CCC(=O)O)C(=O)N[C@@H](CCC(=O)O)C(=O)N[C@@H](CCC(=O)O)C(=O)N[C@@H](C)C(=O)N[C@@H](C)C(=O)N[C@@H](CCCCN)C(=O)N1)C3=O)C2=O)[C@@H](C)CC)C(=O)N[C@@H](CCCCN)C(=O)NCC(=O)N[C@@H](CCCCN)C(N)=O (stereo not given in full) (HELM PEPTIDE1{H.[Aib].E.G.T.Y.T.N.D.V.T.E.Y.C.E.E.E.A.A.K.C.F.I.E.W.L.I.K.G.K.[am]}|CHEM1{[O=C(O)CCCCCCCCCCCCCCCCC(=O)NC(CCC(=O)NCCOCCOCC(=O)NCCOCCOCC(=O)NCCCCCCNC(=O)C(CCCCNC(=O)CCN1C(=O)CC([*:1])C1=O)NC(=O)CCN1C(=O)CC([*:2])C1=O)C(=O)O]}$PEPTIDE1,CHEM1,14:R3-1:R1|PEPTIDE1,CHEM1,21:R3-1:R2$$$V2.0)	0.16	14.5	90.6
CC[C@H](C)[C@H](NC(=O)[C@H](CC(C)C)NC(=O)[C@H](Cc1c[nH]c2ccccc12)NC(=O)[C@H](CCC(=O)O)NC(=O)[C@@H](NC(=O)[C@H](Cc1ccccc1)NC(=O)[C@@H]1CSC2CC(=O)N(CCC(=O)NC(C(=O)NCCCCCCNC(=O)COCCOCCNC(=O)CCCCCCCCCCCCCCCCC(=O)O)CCCCNC(=O)CCN3C(=O)CC(SC[C@H](NC(=O)[C@H](Cc4ccc(O)cc4)NC(=O)[C@H](CCC(=O)O)NC(=O)[C@@H](NC(=O)[C@@H](NC(=O)[C@H](CC(=O)O)NC(=O)[C@H](CC(N)=O)NC(=O)[C@@H](NC(=O)[C@H](Cc4ccc(O)cc4)NC(=O)[C@@H](NC(=O)CNC(=O)[C@H](CCC(=O)O)NC(=O)C(C)(C)NC(=O)[C@@H](N)Cc4c[nH]cn4)[C@@H](C)O)[C@@H](C)O)C(C)C)[C@@H](C)O)C(=O)N[C@@H](CCC(=O)O)C(=O)N[C@@H](CCC(=O)O)C(=O)N[C@@H](CCC(=O)O)C(=O)N[C@@H](C)C(=O)N[C@@H](C)C(=O)N[C@@H](CCCCN)C(=O)N1)C3=O)C2=O)[C@@H](C)CC)C(=O)N[C@@H](CCCCN)C(=O)NCC(=O)N[C@@H](CCCCN)C(N)=O (stereo not given in full) (HELM PEPTIDE1{H.[Aib].E.G.T.Y.T.N.D.V.T.E.Y.C.E.E.E.A.A.K.C.F.I.E.W.L.I.K.G.K.[am]}|CHEM1{[O=C(O)CCCCCCCCCCCCCCCCC(=O)NCCOCCOCC(=O)NCCCCCCNC(=O)C(CCCCNC(=O)CCN1C(=O)CC([*:1])C1=O)NC(=O)CCN1C(=O)CC([*:2])C1=O]}$PEPTIDE1,CHEM1,14:R3-1:R1|PEPTIDE1,CHEM1,21:R3-1:R2$$$V2.0)	0.13	1.4	10.8
CC[C@H](C)[C@@H]1NC(=O)[C@H](CC(C)C)NC(=O)[C@H](Cc2c[nH]c3ccccc23)NC(=O)[C@H](CCC(=O)O)NC(=O)[C@H]([C@@H](C)CC)NC(=O)[C@H](Cc2ccccc2)NC(=O)[C@@H](NC(=O)[C@H](CCCCN)NC(=O)[C@H](C)NC(=O)[C@H](C)NC(=O)[C@H](CCC(=O)O)NC(=O)[C@H](CCC(=O)O)NC(=O)[C@H](CCC(=O)O)NC(=O)[C@H](CC(C)C)NC(=O)[C@H](Cc2ccc(O)cc2)NC(=O)[C@H](CCC(=O)O)NC(=O)[C@@H](NC(=O)[C@@H](NC(=O)[C@H](CC(=O)O)NC(=O)[C@H](CC(N)=O)NC(=O)[C@@H](NC(=O)[C@H](Cc2ccc(O)cc2)NC(=O)[C@@H](NC(=O)CNC(=O)[C@H](CCC(=O)O)NC(=O)C(C)(C)NC(=O)[C@@H](N)Cc2c[nH]cn2)[C@@H](C)O)[C@@H](C)O)C(C)C)[C@@H](C)O)CSC2CC(=O)N(CCC(=O)NCCCCC(C(=O)NCCCCCCNC(=O)COCCOCCNC(=O)CCC(NC(=O)CCCCCCCCCCCCCCCCC(=O)O)C(=O)O)NC(=O)CCN3C(=O)CC(SC[C@@H](C(=O)NCC(=O)N[C@@H](CCCCN)C(=O)N4CCC[C@H]4C(=O)N[C@@H](CO)C(=O)N[C@@H](CO)C(=O)NCC(=O)N[C@@H](C)C(=O)N4CCC[C@H]4C(=O)N4CCC[C@H]4C(=O)N4CCC[C@H]4C(=O)N[C@@H](CO)C(N)=O)NC1=O)C3=O)C2=O (stereo not given in full) (HELM PEPTIDE1{H.[Aib].E.G.T.Y.T.N.D.V.T.E.Y.L.E.E.E.A.A.K.C.F.I.E.W.L.I.C.G.K.P.S.S.G.A.P.P.P.S.[am]}|CHEM1{[O=C(O)CCCCCCCCCCCCCCCCC(=O)NC(CCC(=O)NCCOCCOCC(=O)NCCCCCCNC(=O)C(CCCCNC(=O)CCN1C(=O)CC([*:1])C1=O)NC(=O)CCN1C(=O)CC([*:2])C1=O)C(=O)O]}$PEPTIDE1,CHEM1,21:R3-1:R1|PEPTIDE1,CHEM1,28:R3-1:R2$$$V2.0)	0.14	8.6	61.4
CC[C@H](C)[C@@H]1NC(=O)[C@H](CC(C)C)NC(=O)[C@H](Cc2c[nH]c3ccccc23)NC(=O)[C@H](CCC(=O)O)NC(=O)[C@H]([C@@H](C)CC)NC(=O)[C@H](Cc2ccccc2)NC(=O)[C@@H](NC(=O)[C@H](CCCCN)NC(=O)[C@H](C)NC(=O)[C@H](C)NC(=O)[C@H](CCC(=O)O)NC(=O)[C@H](CCC(=O)O)NC(=O)[C@H](CCC(=O)O)NC(=O)[C@H](CC(C)C)NC(=O)[C@H](Cc2ccc(O)cc2)NC(=O)[C@H](CCC(=O)O)NC(=O)[C@@H](NC(=O)[C@@H](NC(=O)[C@H](CC(=O)O)NC(=O)[C@H](CC(N)=O)NC(=O)[C@@H](NC(=O)[C@H](Cc2ccc(O)cc2)NC(=O)[C@@H](NC(=O)CNC(=O)[C@H](CCC(=O)O)NC(=O)C(C)(C)NC(=O)[C@@H](N)Cc2c[nH]cn2)[C@@H](C)O)[C@@H](C)O)C(C)C)[C@@H](C)O)CSC2CC(=O)N(CCC(=O)NCCCCC(C(=O)NCCCCCCNC(=O)COCCOCCNC(=O)COCCOCCNC(=O)CCC(NC(=O)CCCCCCCCCCCCCCCCC(=O)O)C(=O)O)NC(=O)CCN3C(=O)CC(SC[C@@H](C(=O)NCC(=O)N[C@@H](CCCCN)C(=O)N4CCC[C@H]4C(=O)N[C@@H](CO)C(=O)N[C@@H](CO)C(=O)NCC(=O)N[C@@H](C)C(=O)N4CCC[C@H]4C(=O)N4CCC[C@H]4C(=O)N4CCC[C@H]4C(=O)N[C@@H](CO)C(N)=O)NC1=O)C3=O)C2=O (stereo not given in full) (HELM PEPTIDE1{H.[Aib].E.G.T.Y.T.N.D.V.T.E.Y.L.E.E.E.A.A.K.C.F.I.E.W.L.I.C.G.K.P.S.S.G.A.P.P.P.S.[am]}|CHEM1{[O=C(O)CCCCCCCCCCCCCCCCC(=O)NC(CCC(=O)NCCOCCOCC(=O)NCCOCCOCC(=O)NCCCCCCNC(=O)C(CCCCNC(=O)CCN1C(=O)CC([*:1])C1=O)NC(=O)CCN1C(=O)CC([*:2])C1=O)C(=O)O]}$PEPTIDE1,CHEM1,21:R3-1:R1|PEPTIDE1,CHEM1,28:R3-1:R2$$$V2.0)	0.17	16.5	97.1
CC[C@H](C)[C@@H]1NC(=O)[C@H](CC(C)C)NC(=O)[C@H](Cc2c[nH]c3ccccc23)NC(=O)[C@H](CCC(=O)O)NC(=O)[C@H]([C@@H](C)CC)NC(=O)[C@H](Cc2ccccc2)NC(=O)[C@@H](NC(=O)[C@H](CCCCN)NC(=O)[C@H](C)NC(=O)[C@H](C)NC(=O)[C@H](CCC(=O)O)NC(=O)[C@H](CCC(=O)O)NC(=O)[C@H](CCC(=O)O)NC(=O)[C@H](CC(C)C)NC(=O)[C@H](Cc2ccc(O)cc2)NC(=O)[C@H](CCC(=O)O)NC(=O)[C@@H](NC(=O)[C@@H](NC(=O)[C@H](CC(=O)O)NC(=O)[C@H](CC(N)=O)NC(=O)[C@@H](NC(=O)[C@H](Cc2ccc(O)cc2)NC(=O)[C@@H](NC(=O)CNC(=O)[C@H](CCC(=O)O)NC(=O)C(C)(C)NC(=O)[C@@H](N)Cc2c[nH]cn2)[C@@H](C)O)[C@@H](C)O)C(C)C)[C@@H](C)O)CSC2CC(=O)N(CCC(=O)NCCCCC(C(=O)NCCCCCCNC(=O)COCCOCCNC(=O)CCCCCCCCCCCCCCCCC(=O)O)NC(=O)CCN3C(=O)CC(SC[C@@H](C(=O)NCC(=O)N[C@@H](CCCCN)C(=O)N4CCC[C@H]4C(=O)N[C@@H](CO)C(=O)N[C@@H](CO)C(=O)NCC(=O)N[C@@H](C)C(=O)N4CCC[C@H]4C(=O)N4CCC[C@H]4C(=O)N4CCC[C@H]4C(=O)N[C@@H](CO)C(N)=O)NC1=O)C3=O)C2=O (stereo not given in full) (HELM PEPTIDE1{H.[Aib].E.G.T.Y.T.N.D.V.T.E.Y.L.E.E.E.A.A.K.C.F.I.E.W.L.I.C.G.K.P.S.S.G.A.P.P.P.S.[am]}|CHEM1{[O=C(O)CCCCCCCCCCCCCCCCC(=O)NCCOCCOCC(=O)NCCCCCCNC(=O)C(CCCCNC(=O)CCN1C(=O)CC([*:1])C1=O)NC(=O)CCN1C(=O)CC([*:2])C1=O]}$PEPTIDE1,CHEM1,21:R3-1:R1|PEPTIDE1,CHEM1,28:R3-1:R2$$$V2.0)	0.15	2.3	15.3

— ChEMBL document CHEMBL4699602, “Stapled and Xenopus Glucagon-Like Peptide 1 (GLP-1)-Based Dual GLP-1/Gastrin Receptor Agonists with Improved Metabolic Benefits in Rodent Models of Obesity and Diabetes” (J Med Chem, 2020)
